Measured values from BindingDB's records for PubMed 32492596 (Tsinghua University, 2020).

What was measured:
[1] = target: Stromal cell-derived factor 1 (Homo sapiens, UniProt P48061); assay: Inhibition of SDF-1 alpha induced cell migration in human SUP-T1 cells pre-incubated for 30 mins followed by SDF-1 alpha addition measured after 3 hrs by cell Titer-96 reagent based analysis
[2] = target: C-X-C chemokine receptor type 4 (Homo sapiens, UniProt P61073); assay: Binding affinity to CXCR4 (unknown origin) expressed in CHO cells incubated for 40 mins by competitive binding assay method
Sequence of C-X-C chemokine receptor type 4 (P61073 whole entry): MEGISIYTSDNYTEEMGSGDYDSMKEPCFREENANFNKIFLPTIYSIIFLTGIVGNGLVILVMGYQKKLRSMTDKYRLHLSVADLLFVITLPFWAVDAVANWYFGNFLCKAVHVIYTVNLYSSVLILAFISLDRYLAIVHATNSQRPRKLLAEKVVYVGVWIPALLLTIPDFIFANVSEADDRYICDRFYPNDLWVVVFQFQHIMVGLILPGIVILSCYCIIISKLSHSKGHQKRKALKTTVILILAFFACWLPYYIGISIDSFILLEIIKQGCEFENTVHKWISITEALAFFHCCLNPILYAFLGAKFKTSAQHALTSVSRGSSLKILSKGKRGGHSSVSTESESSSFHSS

Sequence of Stromal cell-derived factor 1 (P48061 whole entry): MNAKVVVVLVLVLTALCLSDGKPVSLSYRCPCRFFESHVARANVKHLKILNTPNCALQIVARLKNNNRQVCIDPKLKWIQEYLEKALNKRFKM

CCOC(=O)C1CNc2c(OC)cc(Cc3cnc(N)nc3N)c(OC)c2C1 (stereo not given)
IC50 [1]: 621 nM

Cc1ccnc2c(N)cc(Cc3cnc(N)nc3N)cc12
IC50 [2]: 68 nM

COc1cc(Cc2cnc(N)nc2N)cc2c1N(CCOC(C)=O)CCC2C (stereo not given)
IC50 [2]: 68 nM

Nc1ncc(Cc2ccc3ncccc3c2)c(N)n1
IC50 [2]: 119 nM

COc1cc(Cc2cnc(N)nc2N)cc2c(C)cc(C)nc12
IC50 [2]: 122 nM
